One data set concerns Fusarium graminearum. Format: cell-based. The following applies: 50 μM; for % Inhibition of DON/AcDON at 50 μM: 7 days at 28° C.

Like-named read-outs stand apart in the source and are kept apart here. Marks after values point to notes of the source that are not given here.

For `Fc1ccc(-c2n[nH]cc2-c2ccncc2)s1` [Example 105], the log p (pH 2.7) was 0.57^[b]. For the same molecule, in the data set on Fusarium graminearum, the “% Inhibition of fungal growth at 50 μM” value came to 0% and the “% Inhibition of DON/AcDON at 50 μM” value amounted to 88%.
Taken in the same sequence, the figures for `CC(C)n1ncc(-c2ccncc2)c1-c1ccc(F)s1` [Example 109] were 1.51^[b], 49% and 100%.
`FC(F)Cn1cc(-c2ccncc2)c(-c2cc(Cl)cs2)n1` [Example 157]: where the note is “pH 2.7”, the log p was 1.42^[b].
With `CC(C)n1cc(-c2ccncc2)c(-c2sccc2Cl)n1` [Example 158], the log p (pH 2.7) is 1.38^[b].
Turning to `CC(C)Cn1cc(-c2ccncc2)c(-c2sccc2Cl)n1` [Example 159], the log p (pH 2.7) was 1.62^[b].
On to `Clc1ccsc1-c1nn(C2CCCC2)cc1-c1ccncc1` [Example 160], for which, where the note is “pH 2.7”, the log p was 1.76^[b].
Still for that read-out and setting: the result for `C=CC(C)n1cc(-c2ccncc2)c(-c2sccc2Cl)n1` (centres unmarked) [Example 161] reads 1.51^[b].
Regarding `CC(C)Nc1nccc(-c2cn(CC(F)F)nc2-c2ccc(Cl)s2)n1` [Example 162], where the note is “pH 2.7”, the log p was 2.66^[b].
Regarding `CCn1cc(-c2ccncc2)c(-c2sccc2Cl)n1` [Example 163], the log p (pH 2.7) was 1.14^[b].
With `COCC(C)Nc1nccc(-c2cn(C(C)C)nc2-c2ccc(Cl)s2)n1` (centres unmarked) [Example 178], the log p (pH 2.3) is 2.82^[a].
Still for that read-out and setting: the result for `CCC(C)Nc1nccc(-c2cn(C(C)C)nc2-c2ccc(Cl)s2)n1` (centres unmarked) [Example 182] reads 3.15^[a]; that for `C=CCNc1nccc(-c2cn(C(C)C)nc2-c2ccc(Cl)s2)n1` [Example 184], 3^[a].
In the case of `CC(C)n1cc(-c2ccnc(N)n2)c(-c2ccc(Cl)s2)n1` [Example 185], the log p (pH 2.3) is 2.01^[a].
Consider `CCC(C)n1cc(-c2ccnc(NC(C)C)n2)c(-c2ccc(Cl)s2)n1` (centres unmarked) [Example 189], for which the log p (pH 2.3) was 3.25^[a].
For the molecule `CC(C)n1cc(-c2ccnc(Cl)n2)c(-c2ccc(Cl)s2)n1` [Example 192], the log p (pH 2.3) is 4.31^[a].
For the molecule `C=CCNc1nccc(-c2cn(C(C)CC)nc2-c2ccc(Cl)s2)n1` (centres unmarked) [Example 196], the log p (pH 2.3) was 3.39^[a]. Besides, in the data set on Fusarium graminearum, the “% Inhibition of fungal growth at 50 μM” value is on record as 83% and the “% Inhibition of DON/AcDON at 50 μM” value is reported as 99%.
As to `CCC(C)Nc1nccc(-c2cn(C(C)CC)nc2-c2ccc(Cl)s2)n1` (centres unmarked) [Example 197], the log p (pH 2.3) is 3.48^[a]. Moreover, in the data set with Fusarium graminearum, the “% Inhibition of fungal growth at 50 μM” value is on record as 73% and the “% Inhibition of DON/AcDON at 50 μM” value worked out at 90%.
For `CC(C)n1cc(-c2ccnc(NCc3ccccc3)n2)c(-c2ccc(Cl)s2)n1` [Example 198], for the setting “pH 2.3”, the log p was 3.81^[a].
For the molecule `CCC(C)n1cc(-c2ccnc(NCc3ccccc3)n2)c(-c2ccc(Cl)s2)n1` (centres unmarked) [Example 200], the log p (pH 2.3) is 4.27^[a].
For the molecule `CCC(C)n1cc(-c2ccnc(S(C)(=O)=O)n2)c(-c2ccc(Cl)s2)n1` (centres unmarked) [Example 202], the log p (pH 2.3) was 3.52^[a].
On the same count and under the same terms, the result for `CC(C)n1cc(-c2ccnc(S(C)(=O)=O)n2)c(-c2ccc(Cl)s2)n1` [Example 203] reads 3.15^[a].
Consider `CCC(C)n1ncc(-c2ccnc(SC)n2)c1-c1ccc(Cl)s1` (centres unmarked) [Example 209], for which the log p (pH 2.3) is 4.76^[a].
Turning to `CC(C)n1cc(-c2ccncc2)c(-c2ccc(I)s2)n1` [Example 214], where the note is “pH 2.7”, the log p was 1.89^[b]. In addition, in the data set with Fusarium graminearum, the “% Inhibition of fungal growth at 50 μM” value is given as 89% and the “% Inhibition of DON/AcDON at 50 μM” value is listed as 99%.
For the molecule `CC(C)n1ncc(-c2ccncc2)c1-c1ccc(I)s1` [Example 215], for the setting “pH 2.7”, the log p was 1.78^[b].
On the same count and under the same terms, for `CC(=O)Nc1cc(-c2cn(C)nc2-c2ccc(NC(C)=O)s2)ccn1` [Example 216] the value was 0.76^[b]; for `CCC(C)n1cc(-c2ccnc(NS(=O)(=O)N(C)C)c2)c(-c2ccc(Cl)s2)n1` (centres unmarked) [Example 217], 3.35^[b]; for `CC(C)n1cc(-c2ccnc(NS(=O)(=O)N(C)C)c2)c(-c2ccc(Cl)s2)n1` [Example 218], 3^[b].
Still for that read-out and setting: for `CCn1cc(-c2ccnc(NS(=O)(=O)N(C)C)c2)c(-c2ccc(Cl)s2)n1` [Example 219] the value was 2.59^[b].
On the same count and under the same terms, for `CN(C)S(=O)(=O)Nc1cc(-c2cn(C)nc2-c2ccc(Cl)s2)ccn1` [Example 220] the value was 2.23^[b].
In the case of `CCC(C)n1cc(-c2ccnc(SC)n2)c(-c2ccc(Cl)s2)n1` (centres unmarked) [Example 221], the log p (pH 2.3) was 4.88^[a].
For the molecule `CSc1nccc(-c2cn(C(C)C)nc2-c2ccc(Cl)s2)n1` [Example 222], the log p (pH 2.3) was 4.44^[a].
Consider `CCC(C)n1cc(-c2ccnc(NC(=O)C(C)(C)C)c2)c(-c2ccc(Cl)s2)n1` (centres unmarked) [Example 231], for which the log p (pH 2.7) was 4.35^[b].
On the same count and under the same terms, for `CCC(C)n1cc(-c2ccnc(NC(=O)c3ccccc3)c2)c(-c2ccc(Cl)s2)n1` (centres unmarked) [Example 237] the value was 4.46^[b].
For the molecule `COCC(=O)Nc1cc(-c2cn(C(C)C)nc2-c2ccc(Cl)s2)ccn1` [Example 244], where the note is “pH 2.7”, the log p is 3.25^[b]. In the data set with Fusarium graminearum, the “% Inhibition of fungal growth at 50 μM” value amounted to 100% and the “% Inhibition of DON/AcDON at 50 μM” value is reported as 99%.
Turning to `CCn1cc(-c2ccnc(NC(=O)N(C)C)c2)c(-c2ccc(Cl)s2)n1` [Example 251], where the note is “pH 2.7”, the log p was 1.72^[b]. Also, in the data set with Fusarium graminearum, the “% Inhibition of fungal growth at 50 μM” value came out at 100% and the “% Inhibition of DON/AcDON at 50 μM” value is listed as 99%.
As for `CCn1cc(-c2ccnc(NC(=O)c3ccccc3)c2)c(-c2ccc(Cl)s2)n1` [Example 266], the log p (pH 2.7) was 3.55^[b].
As for `CCn1cc(-c2ccnc(NC(=O)OC(C)C)c2)c(-c2ccc(Cl)s2)n1` [Example 268], the log p (pH 2.7) is 3.35^[b].
On to `Cn1cc(-c2ccnc(NC(=O)c3cccs3)c2)c(-c2ccc(Cl)s2)n1` [Example 273], for which the log p (pH 2.7) is 3.04^[b].
Take `Cn1cc(-c2ccnc(NC(=O)C(C)(C)C)c2)c(-c2ccc(Cl)s2)n1` [Example 283]: the log p (pH 2.7) was 2.92^[b].
Turning to `CC(=O)N(C(C)=O)c1cc(-c2cn(C)nc2-c2ccc(N(C(C)=O)C(C)=O)s2)ccn1` [Example 289], the log p (pH 2.7) was 1.84^[b].
Take `CC(=O)Nc1ccc(-c2nn(C)cc2-c2ccnc(N(C(C)=O)C(C)=O)c2)s1` [Example 290]: where the note is “pH 2.7”, the log p was 1.39^[b].
On to `CSc1ccc(-c2nn(C(C)C)cc2-c2ccncc2)s1` [Example 294], for which the log p (pH 2.7) is 1.79^[b]. In the data set on Fusarium graminearum, the “% Inhibition of fungal growth at 50 μM” value worked out at 92% and the “% Inhibition of DON/AcDON at 50 μM” value turned out to be 99%.
For the molecule `CSc1ccc(-c2c(-c3ccncc3)cnn2C(C)C)s1` [Example 295], the log p (pH 2.7) was 1.78^[b].
As to `Nc1cc(-c2cn(/C=C/F)nc2-c2ccc(Cl)s2)ccn1` [Example 301], the log p (pH 2.7) was 1.59^[b]. In the data set on Fusarium graminearum, the “% Inhibition of fungal growth at 50 μM” value came to 60% and the “% Inhibition of DON/AcDON at 50 μM” value was found to be 99%.
For the molecule `FC=Cn1cc(-c2ccnc(N=C(c3ccccc3)c3ccccc3)c2)c(-c2ccc(Cl)s2)n1` [Example 302], the log p (pH 2.7) is 4.67^[b].
On the same count and under the same terms, for `Cn1cc(-c2ccnc(N=C(c3ccccc3)c3ccccc3)c2)c(-c2ccc(Cl)s2)n1` [Example 309] the value was 4.67^[b]; for `CC(C)n1cc(-c2ccnc(N=C(c3ccccc3)c3ccccc3)c2)c(-c2ccc(Cl)s2)n1` [Example 310], 4.46^[b]; for `FC(F)Cn1cc(-c2ccnc(Cl)c2)c(-c2ccc(Cl)s2)n1` [Example 314], 3.71^[b].
Consider `CC(C)n1cc(-c2ccnc(Cl)c2)c(-c2ccc(Cl)s2)n1` [Example 315], for which, where the note is “pH 2.7”, the log p is 4.44^[b].
Turning to `Fc1cccc(Cn2cc(-c3ccncc3)c(-c3ccc(Cl)s3)n2)c1F` [Example 325], the log p (pH 2.7) is 2.39^[b].
Turning to `CC1(Cn2cc(-c3ccncc3)c(-c3cc4ccsc4s3)n2)CC1(Cl)Cl` (centres unmarked) [Example 326], under “pH 2.7”, the log p is 2.62^[b] and the “logP value of the minor isomer (between parenthesis, Isomer ratio column)” value is given as “(2.46)”.
On to `Fc1cccc(Cn2cc(-c3ccncc3)c(-c3cc4ccsc4s3)n2)c1F` [Example 327], for which the log p (pH 2.7) is 1.75^[b].
Consider `CC(C)=CCn1cc(-c2ccncc2)c(-c2cc3ccsc3s2)n1` [Example 331], for which the log p (pH 2.7) is 1.69^[b].
The same measure, in the same setting: the result for `ClC(Cl)=CCn1cc(-c2ccncc2)c(-c2cc3ccsc3s2)n1` [Example 335] reads 1.67^[b].
As to `N#CCn1cc(-c2ccncc2)c(-c2cc3ccsc3s2)n1` [Example 336], where the note is “pH 2.7”, the log p was 1.48^[b].
For `Clc1ccc(Cn2cc(-c3ccncc3)c(-c3cc4ccsc4s3)n2)s1` [Example 339], for the setting “pH 2.7”, the log p was 2.57^[b] and the “logP value of the minor isomer (between parenthesis, Isomer ratio column)” value is “(2.35)”.
On to `CC(C)=CCn1cc(-c2ccncc2)c(-c2ccc(F)s2)n1` [Example 343], for which the log p (pH 2.7) is 1.45^[b].
Same read-out and setting: for `Fc1ccc(-c2nn(CC=C(Cl)Cl)cc2-c2ccncc2)s1` [Example 346] the value was 1.43^[b]; for `N#Cc1ccccc1Cn1cc(-c2ccncc2)c(-c2ccc(Br)s2)n1` [Example 352], 2.13^[b].
On to `CC(C)=CCn1cc(-c2ccncc2)c(-c2ccc(Br)s2)n1` [Example 355], for which, under “pH 2.7”, the log p is 2.35^[b] and the “logP value of the minor isomer (between parenthesis, Isomer ratio column)” value was “(2.11)”.
`C=CCn1cc(-c2ccncc2)c(-c2ccc(F)s2)n1` [Example 382]: under “pH 2.7”, the log p is 1.54^[b] and the “logP value of the minor isomer” value was “(1.48)”.
For the molecule `C=CCn1cc(-c2ccncc2)c(-c2ccc(Br)s2)n1` [Example 383], where the note is “pH 2.7”, the log p was 1.82^[b] and the “logP value of the minor isomer” value is given as “(1.73)”.
Turning to `CC(C)Cn1cc(-c2ccncc2)c(-c2ccc(C#N)s2)n1` [Example 404], for the setting “pH 2.7”, the log p is 1.74^[b].
As for `CC(=O)Nc1cc(-c2cn(C(C)C)nc2-c2ccc(Cl)s2)ccn1` [N-{4-[(3/5)-(5-Chloro-2-thienyl)-1-isopropyl-1H-pyrazol-4-yl]pyridin-2-yl}acetamide], for the setting “pH 2.7”, the “logP (pH2.7)” value was 2.45 and the “logP (pH2.7), minor isomer” value is listed as 2.22.
Take “N-Butyl-5-[4-(pyridin-4-yl)-1H-pyrazol-3-yl]thiophene-2-carboxamide hydrochloride”: for the setting “pH 2.7”, the “logP (pH2.7)” value was 1.47.

(Values after patent publication US8685974B2 (Bayer CropScience AG, priority 2009, dated 2014).)
